{"source": "patent US20260130964A1", "about": "“PHARMACEUTICAL COMPOSITION COMPRISING HIGH PAY LOAD GINGER EXTRACT GRANULES AND PROCESS FOR PREPARATION THEREOF” (INDIA GLYCOLS LIMITED, priority 2022, published 2026)", "origin": "cited, not measured here", "settings": "in vivo, po", "data": [{"molecule": "CCCCC[C@H](O)CC(=O)CCc1ccc(O)c(OC)c1", "note": "[Example 6-gingerol, 6-gingerol]", "values": [{"measurement": "biological half-life", "result": "< 2", "unit": "hrs"}]}]}
